Source: patent US20210380586A1, “2-INDOLYL IMIDAZO[4,5-D]PHENANTHROLINE POLYMORPHS AND COMPOSITIONS REGARDING THE SAME” (Aptose Biosciences Inc., priority 2020, published 2021)

Test: IV formulation end user compatibility study, microscopic particulate examination
Type: physicochemical
Description: For the high concentration, […] of Compound I-tetrahydrate (4.0 mg/mL) was injected into a BBraun partial additive bag (PAB) for IV administration, attached to a Y-infusion set line. The other end of the Y infusion set line was connected to Lactated Ringer's Solution. Infusion is performed via the Y infusion set, such that the drug product is mixed with Lactated Ringer's Solution directly prior to administration. A total volume of 100 mL drug product at a rate of 50 mL/hr and 200 mL Lactated Ringer's Solution at a rate of 100 mL/hr were administered in a 2:1 ratio over a two hour period, to deliver 300 mL of eluent at a rate of 150 mL/hr.
The evaluation of particulate matter from collected IV samples was therefore performed by microscopic visual examination utilizing approximately 25 μL of IV co-infusion eluate, collected directly from the terminal end of the IV line, deposited on a microscope slide. […] The specific microscope settings used are shown below. A Positive Control sample containing a USP Particle Count Reference Standard consisting of spherical particles of known sizes between 10 μm and 15 μm (USP reference standard, Cat. No.: 1500502, lot #L0L142) was visualized under the microscope using a 10×10 lens.

[1] = 4.0 mg/mL, Y-infusion with Lactated Ringer's Solution 2:1, 120 min simulated infusion run

filter clogging or stoppage of the infusion pump [1]: No filter clogging
particles by microscope examination in eluent samples [1]: no particles were detected
time material may be infused without filter clogging ("Y-Line" infusion set): up to 2 hours
Structure (SMILES): Cc1[nH]c2ccc(F)cc2c1-c1nc2c3cccnc3c3ncccc3c2[nH]1 [Compound I-hydrate Form 2]
